Laboratory results taken from ChEMBL document CHEMBL3044635, “Effect of propiconazole and difenoconazole on the control of anthracnose of chilli fruits caused by Colletotrichum capsici” (Crop Prot, 2006).
Values after ≈ are worked out from the molar mass of the structure shown.

Key:
[1] = tested on: Colletotrichum truncatum; experiment: Fungicidal activity against Colletotrichum capsici assessed as reduction of pectin trans-eliminase production at 1 ug/ml incubated for 10 days measured up to 120 min by Ostwald-Fenske viscometric analysis (reference value: 38.5%); type: functional; parameters: scale not given: the % may be the effect or the level left
[2] = tested on: Colletotrichum truncatum; experiment: Fungicidal activity against Colletotrichum capsici assessed as inhibition of mycelial growth; type: functional; conditions: Colletotrichum truncatum; read-out: ED50 (the source's name)
[3] = tested on: Colletotrichum truncatum; experiment: Fungicidal activity against Colletotrichum capsici assessed as sporulation at 50 ug/ml incubated 16 hr photoperiod for 20 days by haemocytometer (reference value: 0.081 x 10^6 ml'-1); type: functional
[4] = tested on: Colletotrichum truncatum; experiment: Fungicidal activity against Colletotrichum capsici assessed as sporulation at 25 ug/ml incubated 16 hr photoperiod for 20 days by haemocytometer (reference value: 0.081 x 10^6 ml'-1); type: functional
[5] = tested on: Colletotrichum truncatum; experiment: Fungicidal activity against Colletotrichum capsici assessed as sporulation at 10 ug/ml incubated 16 hr photoperiod for 20 days by haemocytometer (reference value: 0.081 x 10^6 ml'-1); type: functional
[6] = tested on: Colletotrichum truncatum; experiment: Fungicidal activity against Colletotrichum capsici assessed as sporulation at 5 ug/ml incubated 16 hr photoperiod for 20 days by haemocytometer (reference value: 0.081 x 10^6 ml'-1); type: functional
[7] = tested on: Colletotrichum truncatum; experiment: Fungicidal activity against Colletotrichum capsici assessed as sporulation at 1 ug/ml incubated 16 hr photoperiod for 20 days by haemocytometer (reference value: 0.081 x 10^6 ml'-1); type: functional
[8] = tested on: Colletotrichum truncatum; experiment: Fungicidal activity against Colletotrichum capsici assessed as sporulation at 0.5 ug/ml incubated 16 hr photoperiod for 20 days by haemocytometer (reference value: 0.081 x 10^6 ml'-1); type: functional
[9] = tested on: Colletotrichum truncatum; experiment: Fungicidal activity against Colletotrichum capsici assessed as sporulation at 0.1 ug/ml incubated 16 hr photoperiod for 20 days by haemocytometer (reference value: 0.081 x 10^6 ml'-1); type: functional
[10] = tested on: Colletotrichum truncatum; experiment: Fungicidal activity against Colletotrichum capsici assessed as spore germination at 50 ug/ml after 48 to 96 hr (reference value: 70.2 CFU); type: functional
[11] = tested on: Colletotrichum truncatum; experiment: Fungicidal activity against Colletotrichum capsici assessed as spore germination at 10 ug/ml after 48 to 96 hr (reference value: 70.2 CFU); type: functional
[12] = tested on: Colletotrichum truncatum; experiment: Fungicidal activity against Colletotrichum capsici assessed as spore germination at 25 ug/ml after 48 to 96 hr (reference value: 70.2 CFU); type: functional
[13] = tested on: Colletotrichum truncatum; experiment: Fungicidal activity against Colletotrichum capsici assessed as spore germination at 1 ug/ml after 48 to 96 hr (reference value: 70.2 CFU); type: functional
[14] = tested on: Colletotrichum truncatum; experiment: Fungicidal activity against Colletotrichum capsici assessed as spore germination at 0.5 ug/ml after 48 to 96 hr (reference value: 70.2 CFU); type: functional
[15] = tested on: Colletotrichum truncatum; experiment: Fungicidal activity against Colletotrichum capsici assessed as inhibition of spore germination at 0.1 ug/ml after 48 to 96 hr relative to control; type: functional
[16] = tested on: Colletotrichum truncatum; experiment: Fungicidal activity against Colletotrichum capsici assessed as mycelial biomass at 25 ug/ml incubated 16 hr photoperiod for 20 days (reference value: 675 mg); type: functional
[17] = tested on: Colletotrichum truncatum; experiment: Fungicidal activity against Colletotrichum capsici assessed as mycelial biomass at 50 ug/ml incubated 16 hr photoperiod for 20 days (reference value: 675 mg); type: functional
[18] = tested on: Colletotrichum truncatum; experiment: Fungicidal activity against Colletotrichum capsici assessed as mycelial biomass at 10 ug/ml incubated 16 hr photoperiod for 20 days (reference value: 675 mg); type: functional
[19] = tested on: Colletotrichum truncatum; experiment: Fungicidal activity against Colletotrichum capsici assessed as mycelial biomass at 1 ug/ml incubated 16 hr photoperiod for 20 days (reference value: 675 mg); type: functional
[20] = tested on: Colletotrichum truncatum; experiment: Fungicidal activity against Colletotrichum capsici assessed as mycelial biomass at 0.1 ug/ml incubated 16 hr photoperiod for 20 days (reference value: 675 mg); type: functional
[21] = tested on: Colletotrichum truncatum; experiment: Fungicidal activity against Colletotrichum capsici assessed as linear growth at 25 ug/ml incubated 16 hr photoperiod for 20 days (reference value: 90 mm); type: functional
[22] = tested on: Colletotrichum truncatum; experiment: Fungicidal activity against Colletotrichum capsici assessed as linear growth at 5 ug/ml incubated 16 hr photoperiod for 20 days (reference value: 90 mm); type: functional
[23] = tested on: Colletotrichum truncatum; experiment: Fungicidal activity against Colletotrichum capsici assessed as linear growth at 10 ug/ml incubated 16 hr photoperiod for 20 days (reference value: 90 mm); type: functional
[24] = tested on: Colletotrichum truncatum; experiment: Fungicidal activity against Colletotrichum capsici assessed as linear growth at 1 ug/ml incubated 16 hr photoperiod for 20 days (reference value: 90 mm); type: functional
[25] = tested on: Colletotrichum truncatum; experiment: Fungicidal activity against Colletotrichum capsici assessed as linear growth at 0.5 ug/ml incubated 16 hr photoperiod for 20 days (reference value: 90 mm); type: functional
[26] = tested on: Colletotrichum truncatum; experiment: Fungicidal activity against Colletotrichum capsici assessed as linear growth at 0.1 ug/ml incubated 16 hr photoperiod for 20 days (reference value: 90 mm); type: functional
[27] = tested on: Colletotrichum truncatum; experiment: Fungicidal activity against Colletotrichum capsici infected chilli plant assessed as fruit length at 0.025% applied as spray on day 10 post inoculation and twice every 20 days measured on day 155 post sowing in green house conditions (reference value: 6.8 to 7 cm); type: functional
[28] = tested on: Colletotrichum truncatum; experiment: Fungicidal activity against Colletotrichum capsici infected chilli plant assessed as fruit length at 0.05% applied as spray on day 10 post inoculation and twice every 20 days measured on day 155 post sowing in green house conditions (reference value: 6.8 to 7 cm); type: functional
[29] = tested on: Colletotrichum truncatum; experiment: Fungicidal activity against Colletotrichum capsici infected chilli plant assessed as fruit mass measured per pot at 0.025% applied as spray on day 10 post inoculation and twice every 20 days measured on day 155 post sowing in green house conditions (reference value: 85.3 to 94.5 g); type: functional
[30] = tested on: Capsicum annuum; experiment: Phytotoxicity in Capsicum annuum (pepper) at 0.1% applied as spray; type: organism-based; conditions: in vivo, other
[31] = tested on: Colletotrichum truncatum; experiment: Fungicidal activity against Colletotrichum capsici infected chilli plant assessed as percent disease index at 0.05% applied as spray on day 10 post inoculation and twice every 20 days measured on day 155 post sowing in green house conditions (reference value: 62.5 to 68.6%); type: functional
[32] = tested on: Colletotrichum truncatum; experiment: Fungicidal activity against Colletotrichum capsici infected chilli plant assessed as fruit length measured per plot at 0.025% applied as spray on day 10 post inoculation and twice every 20 days measured on day 155 post sowing in field conditions (reference value: 8 to 8.7 cm); type: functional
[33] = tested on: Colletotrichum truncatum; experiment: Fungicidal activity against Colletotrichum capsici infected chilli plant assessed as fruit length measured per plot at 0.05% applied as spray on day 10 post inoculation and twice every 20 days measured on day 155 post sowing in field conditions (reference value: 8 to 8.7 cm); type: functional
[34] = tested on: Colletotrichum truncatum; experiment: Fungicidal activity against Colletotrichum capsici infected chilli plant assessed as fruit yield measured per plot at 0.05% applied as spray on day 10 post inoculation and twice every 20 days measured on day 155 post sowing in field conditions (reference value: 8.25 to 9.3 kg); type: functional
[35] = tested on: Colletotrichum truncatum; experiment: Fungicidal activity against Colletotrichum capsici infected chilli plant assessed as percent disease index at 0.025% applied as spray on day 10 post inoculation and twice every 20 days measured on day 155 post sowing in field conditions (reference value: 51 to 56.5%); type: functional

Q: Which Activity [1] does the source give for `CC1COC(Cn2cncn2)(c2ccc(Oc3ccc(Cl)cc3)cc2Cl)O1` (stereo not given) [DIFENOCONAZOLE] here?
A: 15.6%

Q: What about the EC50 [2] of the same compound?
A: 0.15 µg/mL (≈ 0.369 µM)

Q: What about the Activity [3] of the same compound?
A: 0 ×10⁶ /ml

Q: And the Activity [4]?
A: 0 ×10⁶ /ml

Q: And the Activity [5]?
A: 0 ×10⁶ /ml

Q: What about the Activity [6] of the same compound?
A: 0.37 ×10⁶ /ml

Q: What about the Activity [7] of the same compound?
A: 1.02 ×10⁶ /ml

Q: And the Activity [8]?
A: 2.25 ×10⁶ /ml

Q: And the Activity [9]?
A: 3.25 ×10⁶ /ml

Q: And the CFU [10]?
A: 0

Q: What about the CFU [11] of the same compound?
A: 0

Q: What about the CFU [12] of the same compound?
A: 0

Q: And the CFU [13]?
A: 7.8

Q: And the CFU [14]?
A: 22.4

Q: What about the inhibition at 0.1 µg/mL [15] of the same compound?
A: 40%

Q: And the Activity [16]?
A: 0 mg

Q: What about the Activity [17] of the same compound?
A: 0 mg

Q: What about the Activity [18] of the same compound?
A: 47 mg

Q: What about the Activity [19] of the same compound?
A: 243 mg

Q: And the Activity [20]?
A: 465 mg

Q: And the Activity [21]?
A: 9 mm

Q: And the Activity [22]?
A: 27.4 mm

Q: What about the Activity [23] of the same compound?
A: 18.5 mm

Q: And the Activity [24]?
A: 39.3 mm

Q: And the Activity [25]?
A: 48.5 mm

Q: What about the Activity [26] of the same compound?
A: 73.5 mm

Q: What about the Activity [27] of the same compound?
A: 7 cm

Q: And the Activity [28]?
A: 7.5 cm

Q: And the Crop_yield [29]?
A: 100.6 g

Q: And the Activity [30]?
A: Toxic

Q: And the PDI [31]?
A: 22.2%

Q: And the Activity [32]?
A: 8.2 cm

Q: What about the Activity [33] of the same compound?
A: 9.2 cm

Q: What about the Crop_yield [34] of the same compound?
A: 12.34 kg

Q: And the PDI [35]?
A: 33%

Q: With `CCCC1COC(Cn2cncn2)(c2ccc(Cl)cc2Cl)O1` (stereo not given) [PROPICONAZOLE] as the compound, how does the Activity [1] read?
A: 12%

Q: What about the EC50 [2] of the same compound?
A: 0.19 µg/mL (≈ 0.555 µM)

Q: What about the Activity [3] of the same compound?
A: 0 ×10⁶ /ml

Q: And the Activity [4]?
A: 0 ×10⁶ /ml

Q: What about the Activity [5] of the same compound?
A: 0 ×10⁶ /ml

Q: What about the Activity [6] of the same compound?
A: 0 ×10⁶ /ml

Q: What about the Activity [7] of the same compound?
A: 0.33 ×10⁶ /ml

Q: And the Activity [8]?
A: 1.3 ×10⁶ /ml

Q: What about the Activity [9] of the same compound?
A: 2.83 ×10⁶ /ml

Q: What about the CFU [10] of the same compound?
A: 0

Q: What about the CFU [11] of the same compound?
A: 0

Q: And the CFU [12]?
A: 0

Q: What about the CFU [13] of the same compound?
A: 3.3

Q: And the CFU [14]?
A: 15.5

Q: And the inhibition at 0.1 µg/mL [15]?
A: 62%

Q: What about the Activity [16] of the same compound?
A: 0 mg

Q: And the Activity [17]?
A: 0 mg

Q: And the Activity [18]?
A: 0 mg

Q: What about the Activity [19] of the same compound?
A: 129 mg

Q: What about the Activity [20] of the same compound?
A: 410 mg

Q: What about the Activity [21] of the same compound?
A: 9 mm

Q: What about the Activity [22] of the same compound?
A: 12.61 mm

Q: What about the Activity [23] of the same compound?
A: 9 mm

Q: What about the Activity [24] of the same compound?
A: 20.5 mm

Q: What about the Activity [25] of the same compound?
A: 39.2 mm

Q: And the Activity [26]?
A: 55.3 mm

Q: And the Activity [27]?
A: 7.1 cm

Q: And the Activity [28]?
A: 7.8 cm

Q: What about the Crop_yield [29] of the same compound?
A: 112.8 g

Q: And the Activity [30]?
A: Non-toxic

Q: And the PDI [31]?
A: 25.7%

Q: And the Activity [32]?
A: 8.5 cm

Q: And the Activity [33]?
A: 9.2 cm

Q: What about the Crop_yield [34] of the same compound?
A: 13.1 kg

Q: What about the PDI [35] of the same compound?
A: 30.6%
